For series [1], the system named is Ehrlich ascites carcinoma cells. Nature of the series: Antitumor activity against Ehrlich ascites carcinoma (increase in life span, survivors). The settings on record: for 35 days survivals No./treated / ILS (increase in life span): Ehrlich; for ILS (increase in life span): Table 1, 35 days, control 15.14-15.43 days. It counts as in vivo, mouse (ICR mice). How it is done: Antitumor activities against mouse leukemia P-388 carcinoma and Ehrlich ascites carcinoma are shown in the ensuing examples, according to the following list of specifications:
2. Animals: BDF1 mice or ICR mice, aged 5-6 weeks, male, 5 mice in a group and 7 control mice.
3. Tumor cells: P-388 leukemic cells; 1×10^6 /0.2 ml are inoculated intraperitoneally in BDF1 mice. Ehrlich ascites carcinoma cells; 2×10^6 /0.2 ml are inoculated intraperitoneally in ICR mice.
4. Preparation of samples and administration of drugs: Samples are suspended in Tris-HCl saline solution by sonication. 0.1 ml/10 g body weight is administered. Samples are stored at 4° C. in the dark.
Administration: starting two days after inoculation of tumor, once a day for 2-7 days.
5. Increase in life span (ILS) is calculated by the following equation: [formula] Experimental days: 35 days (partially 30 days) mice living in final days are not calculated in ILS.
Antitumor activity of this compound has been shown hereinbefore. Furthermore, over 60% ILS was observed when Ehrlich ascites carcinoma, 2×10^6 cells/0.2 ml was inoculated intraperitoneally in mice and 2 days thereafter this compound (30 mg/kg) was administered once a day for 7 days.

Another series concerns mice. Nature of the series: Acute toxicity / mortality in mice. It counts as in vivo. Particulars: for mortality: 150 mg/kg body weight in mice.
The subject of another series is P-388 leukemic cells. In words: Antitumor activity against mouse P-388 leukemia (increase in life span, survivors). The format is in vivo, mouse (BDF1 mice). Particulars: for 35 days survivals No./treated / ILS (increase in life span): P-388; for ILS (increase in life span): Table 1, 35 days, control 7.57-7.79 days; for ILS at 15 mg/kg / ILS at 30 mg/kg: P388.
Series [2] in a line: Antiviral activity (statement, no method given). The settings on record: statement in words; virus and dose not stated.
The mark [3] stands for this setting: Mus musculus, Table 5, P-388 leukemia treatment, 30 mg (× 5) under head mg/kg.

In the case of `CCCCCCCCCCCCCCCC(=O)OC[C@H](COP(=O)(O)OC[C@H]1O[C@@H](n2cc(F)c(=O)[nH]c2=O)[C@H](O)[C@@H]1O)OC(=O)CCCCCCCCCCCCCCC` [Example 1], in series [1] (15 mg/kg (× 5)), the “35 days survivals No./treated” value is recorded as 2/5 and the “ILS (increase in life span)” value was above 88.0%. Besides, the acute toxicity entry in the series on mice (150 mg/kg i.p. in mice) is on record as “No acute toxicity was observed”. Also, in the series on P-388 leukemic cells (30 mg/kg (× 5)), the “35 days survivals No./treated” value is reported as 0/5 and the “ILS (increase in life span)” value amounted to 206.3%.
As to `CCCCCCCCCCCCCCCC(=O)OC[C@H](COP(=O)(O)OCC1=C[C@@H](n2cnc3c(N)ncnc32)[C@H](O)[C@@H]1O)OC(=O)CCCCCCCCCCCCCCC` [Example 2], in series [1] (10 mg/kg (× 7)), the “35 days survivals No./treated” value was 2/5 and the “ILS (increase in life span)” value is on record as above 68.7%. In the series on mice (250 mg/kg body weight), the acute toxicity result is reported as “No acute toxicity was observed”. In the series with P-388 leukemic cells (50 mg/kg (× 3)), the “35 days survivals No./treated” value is on record as 1/5 and the “ILS (increase in life span)” value is given as above 159.3%.
As for `CCCCC/C=C\C/C=C\CCCCCCCC(=O)OC[C@H](COP(=O)(O)OC[C@H]1O[C@@H](n2cc(F)c(=O)[nH]c2=O)[C@H](O)[C@@H]1O)OC(=O)CCCCCCC/C=C\C/C=C\CCCCC` [Example 3], the acute toxicity result in the series on mice (75 mg/kg, mice) was “no acute toxicity”. This compound yielded an ILS at 15 mg/kg in the series on P-388 leukemic cells (mouse P-388 leukemia, 15 kg/mg, 5 times administration) of 101%. In addition, in the series with P-388 leukemic cells (15 mg/kg (× 5)), the “35 days survivals No./treated” value is on record as 0/5 and the “ILS (increase in life span)” value was 100.8%.
In the case of `CCCCCCCCCCCCCCCC(=O)OC[C@H](COP(=O)(O)OC[C@H]1O[C@@H](n2cc(F)c(N)nc2=O)[C@@H](O)[C@@H]1O)OC(=O)CCCCCCCCCCCCCCC` [Example 13], the ILS entry in series [1] (Ehrlich ascites carcinoma 2×10^6 cells i.p., 30 mg/kg once a day for 7 days from 2 days after inoculation) was “over 60%”. Also, in the series with mice (150 mg/kg body weight, mice), the acute toxicity entry is given as “No acute toxicity”. This compound also yielded an ILS at 15 mg/kg in the series with P-388 leukemic cells (Mus musculus, Table 2, P-388 leukemia, 15 mg/kg (× 5), control 7.57-7.64 days) of 152%.
As for `CCCCCCCC/C=C\CCCCCCCC(=O)OC[C@H](COP(=O)(O)OC[C@H]1O[C@@H](n2ccc(N)nc2=O)[C@@H](O)[C@@H]1O)OC(=O)CCCCCCC/C=C\CCCCCCCC` [Example 14], the ILS in series [1] (mice Ehrlich ascites carcinoma, dose not stated) came to 65.6%. In addition, the “acute toxicity or mortality” value with mice (150 mg/kg body weight, mice) is listed as “No acute toxicity or mortality”. Besides, the ILS at 30 mg/kg in the series on P-388 leukemic cells (Mus musculus, Table 2, P-388 leukemia, 30 mg/kg (× 5), control 7.57-7.64 days) turned out to be 154%.
The compound `CCCCCCCCCCCCCCCCCC(=O)OC[C@H](COP(=O)(O)OC[C@H]1O[C@@H](n2cc(F)c(=O)[nH]c2=O)[C@H](O)[C@@H]1O)OC(=O)CCCCCCCCCCCCCCCCC` [Example 16] had an ILS at 30 mg/kg in the series with P-388 leukemic cells (setting [3]) of 206%.
On the same count and under the same terms, with `CCCCCCCCCCCCCCCCCC(=O)OC[C@H](COP(=O)(O)OCC1=C[C@@H](n2cnc3c(N)ncnc32)[C@H](O)[C@@H]1O)OC(=O)CCCCCCCCCCCCCCCCC` [Example 17] the figure was 128%; with `CCCCCCCCCCCCCCCCCC(=O)OC[C@H](COP(=O)(O)OC[C@H]1O[C@@H](n2cc(F)c(N)nc2=O)[C@@H](O)[C@@H]1O)OC(=O)CCCCCCCCCCCCCCCCC` [Example 18], 194%; with `CCCCCCCCCCCCCCCCCC(=O)OC[C@H](COP(=O)(O)OC[C@H]1O[C@@H](n2ccc(N)nc2=O)[C@@H](O)[C@@H]1O)OC(=O)CCCCCCCCCCCCCCCCC` [Example 19], 160%.
In turn, `CCCCCCCCCCCCCCCCCC(=O)OC[C@H](COP(=O)(O)OC[C@H]1O[C@@H](n2cc(F)c(=O)[nH]c2=O)C[C@@H]1O)OC(=O)CCCCCCCCCCCCCCCCC` [Example 20] yielded an increase in life span (ILS) at 30 mg/kg in the series on P-388 leukemic cells (setting [3]) of 36%.
For the compound `CCCCCCCCCCCCCCCC(=O)OC[C@H](COP(=O)(O)OC[C@H]1O[C@@H](n2cnc3c(N)ncnc32)[C@@H](O)[C@@H]1O)OC(=O)CCCCCCCCCCCCCCC` [dipalmitoyl phosphatidyl arabinosyladenine], the antiviral activity result in series [2] is “have antiviral activity”. In addition, the mortality entry in the series on mice is “no mortality was observed”.
As to `CCCCCCCCCCCCCCCC(=O)OC[C@H](COP(=O)(O)OC[C@H]1O[C@@H](n2cc(C)c(=O)[nH]c2=O)[C@@H](O)[C@@H]1O)OC(=O)CCCCCCCCCCCCCCC` [dipalmitoyl phosphatidyl arabinosylthymine], the antiviral activity entry in series [2] is on record as “have antiviral activity”. The mortality result with mice is listed as “no mortality was observed”.

What is called ILS is how much longer treated animals lived than controls. A low value points to little gain in survival.

For the origin of these results see patent US4797479A, “Nucleoside-phospholipid conjugate” (Toyo Jozo Kabushiki Kaisha, priority 1985, dated 1989).
